According to paper PMC4154654 (PLoS Neglected Tropical Diseases, 2014):
Where “and” joins values, the source holds several entries; their conditions need not be identical. Equal entries are not always repeated.

Tests used:
T84 cell monolayers = assay: Barrier function assay (FITC-dextran flux) in T84 cell monolayers; conditions: 24-h treatment, 3 mM
[1] = system: cholera toxin (CT)-induced intestinal fluid secretion; conditions: mouse, in vivo; cited from earlier work
[2] = system: live V. cholerae-induced intestinal fluid secretion; conditions: mice; ref [17], [38]; cited from earlier work
CFTR Cl− channel [3] = biological target: T1, CFTR Cl− channel (Homo sapiens, UniProt P13569); assay: Apical Cl− current analysis of CFTR Cl− channel activity in basolaterally permeabilized T84 cells; assay type: cell-based
[4] = biological target: T2, Na+-K+-Cl− cotransporter (NKCC1) (Homo sapiens, UniProt P55011); assay: Thallium (Tl+) influx-based fluorescent assay of NKCC1 activity in T84 cells; assay type: cell-based
T2 sequence (P55011 1-1212): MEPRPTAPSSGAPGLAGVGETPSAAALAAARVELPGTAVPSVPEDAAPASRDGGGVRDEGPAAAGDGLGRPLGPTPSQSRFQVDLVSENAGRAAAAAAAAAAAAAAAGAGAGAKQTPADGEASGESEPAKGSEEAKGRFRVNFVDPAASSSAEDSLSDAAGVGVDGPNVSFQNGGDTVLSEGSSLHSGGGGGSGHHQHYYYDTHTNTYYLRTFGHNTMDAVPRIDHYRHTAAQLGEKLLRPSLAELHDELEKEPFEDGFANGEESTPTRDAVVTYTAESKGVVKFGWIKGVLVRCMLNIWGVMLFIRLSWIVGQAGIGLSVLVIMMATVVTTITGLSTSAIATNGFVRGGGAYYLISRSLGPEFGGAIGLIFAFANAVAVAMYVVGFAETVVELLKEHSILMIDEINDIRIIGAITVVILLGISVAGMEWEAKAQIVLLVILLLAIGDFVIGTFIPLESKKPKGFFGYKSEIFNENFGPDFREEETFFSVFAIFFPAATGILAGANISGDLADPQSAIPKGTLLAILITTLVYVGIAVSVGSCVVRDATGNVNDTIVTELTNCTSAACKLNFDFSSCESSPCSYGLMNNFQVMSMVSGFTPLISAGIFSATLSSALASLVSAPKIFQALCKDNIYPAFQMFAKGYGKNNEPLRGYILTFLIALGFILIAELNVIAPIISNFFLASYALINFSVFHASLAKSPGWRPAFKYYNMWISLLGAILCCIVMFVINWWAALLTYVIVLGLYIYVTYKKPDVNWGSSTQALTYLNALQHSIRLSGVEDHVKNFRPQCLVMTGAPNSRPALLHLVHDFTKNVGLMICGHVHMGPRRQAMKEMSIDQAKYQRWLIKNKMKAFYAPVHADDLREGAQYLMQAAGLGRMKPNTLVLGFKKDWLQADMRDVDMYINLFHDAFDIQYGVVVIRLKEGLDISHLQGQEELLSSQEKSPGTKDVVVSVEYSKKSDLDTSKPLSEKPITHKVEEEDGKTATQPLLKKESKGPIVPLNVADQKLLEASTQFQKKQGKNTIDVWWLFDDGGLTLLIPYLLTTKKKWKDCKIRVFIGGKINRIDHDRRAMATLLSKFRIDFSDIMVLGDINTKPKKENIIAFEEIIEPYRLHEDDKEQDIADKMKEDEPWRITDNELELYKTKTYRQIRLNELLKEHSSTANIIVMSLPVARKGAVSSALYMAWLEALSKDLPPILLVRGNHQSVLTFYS

[5] = system: intracellular cAMP levels in T84 cells; assay: Intracellular cAMP measurement (cAMP immunoassay) in T84 cells; assay type: cell-based, human; conditions: 200 µM, 1 h, basal and forskolin-stimulated (20 µM) conditions
Method: Intracellular cAMP levels in T84 cells were measured using cAMP immunoassays (R&D Systems, Minneapolis, Minnesota, USA). T84 cells were seeded on 24-well plates at a density of 10^6 cells/well and grown for 24 h in a humidified 5% CO2/[…] incubator at 37°C. […] Thereafter, cells were lysed with cell lysis buffer and level of intracellular cAMP was measured according to the manufacturer's instructions.
Data are expressed as means ± S.E.M. NS, non-statistical difference (n = 3).

[6] = system: phosphorylated Ca2+/calmodulin-dependent protein kinase II (CaMKII); assay: Immunoblot analysis of ATP-induced CaMKII phosphorylation in T84 cells; assay type: cell-based, human; conditions: 20 min, ATP 100 µM plus diclofenac 20 µM
Method: Proteins were extracted using lysis buffers containing (pH 7.4) 1% Triton X-100, 50 mM Tris-HCl, 150 mM NaCl, 1 mM EDTA, 1 mM NaF, 1 mM Na3VO4, 1 mM PMSF and protease inhibitor (PI) cocktail. Protein concentration was determined using a Lowry method. Equal amounts of proteins were loaded on sodium dodecyl sulfate polyacrylamide gel electrophoresis and transferred to a nitrocellulose membrane. […] The secondary antibodies were horseradish peroxidase-conjugated anti-rabbit IgG antibodies. The immunoblot was visualized using a chemiluminescence detection method.

Na+-K+ ATPase = Na+-K+ ATPase activity (ouabain-sensitive short-circuit current) in T84 cells; assay type: cell-based, human; conditions: pretreatment 200 µM
Method: After stabilization of the amphotericin B-induced rise in Isc, ouabain (1 mM) was added into the basolateral solution and the values of ouabain-sensitive current were used to represent the activity of Na^+-K^+ ATPases.
In this method, apical membrane was permeabilized by amphotericin B (250 µg/ml) and a K^+ gradient ([K^+]apical>[K^+]basolateral) was established using asymmetrical K^+ buffers in the presence of ouabain in basolateral solutions (to prevent current generated by Na^+-K^+ ATPases) (Fig. 5A, inset). The basolateral K^+ current elicited by an addition of cell-permeable cAMP (e.g. CPT-cAMP) would, therefore, reflect the activity of cAMP-activated K^+ channels located in the basolateral membrane of T84 cells (i.e. KCNQ1/KCNE3 K^+ channels). […] In this protocol, intracellular Na^+ loading by amphotericin B-induced permeabilization of apical membrane stimulated Na^+-K^+ ATPase activity, resulting in an increase in Isc (Fig. 5B, inset). […]
Na^+-K^+ ATPase activity was estimated from values of ouabain-sensitive short-circuit current, which was induced by intracellular Na^+ loading following amphotericin B (250 µg/ml)-induced apical membrane permeabilization. […] Summary of data is expressed as means of ouabain-sensitive short-circuit current ± S.E.M. (n = 6–8).

[7] = system: Ca2+-activated Cl− channel (CaCC); assay: Apical Cl− current analysis of ATP-stimulated CaCC in T84 cells
[8] = system: V. cholerae-induced intestinal fluid secretion; assay: Mouse closed-loop model of cholera induced by V. cholerae; assay type: in vivo; conditions: mice, 30 mg/kg intraperitoneal, 10^7 CFU/loop, 12 h, loop weight/length ratio
[9] = biological target: Ca2+-activated basolateral K+ channels (KCa3.1) (Homo sapiens, UniProt O15554); assay: Basolateral K+ current analysis of ATP-stimulated Ca2+-activated basolateral K+ channels in T84 cells; assay type: cell-based; conditions: BaCl2 5 mM, ATP 100 µM
Method: High K^+ apical solution contained (pH 7.3) 142.5 mM K-gluconate, 1.25 mM CaCl2, 0.40 mM MgSO4, 0.43 mM […], 0.35 mM Na2HPO4, 10 mM Na-HEPES and 5.6 mM glucose. In low K^+ basolateral solution, concentration of K-gluconate was reduced to 5.4 mM and 136.9 mM N-methyl-glucamine was added. Before basolateral K^+ current measurements, apical membrane of T84 cells was permeabilized by amphotericin B (250 µg/ml) and ouabain (1 mM) was added into basolateral solution to prevent current contributed by Na^+-K^+ ATPase.

[10] = system: CT-induced intestinal fluid secretion; assay: Mouse closed-loop model of cholera induced by CT; assay type: in vivo; conditions: mice, 30 mg/kg intraperitoneal, CT 1 µg/loop, 4 h, loop weight/length ratio
CFTR Cl− channel [11] = biological target: T1, CFTR Cl− channel; assay: Apical Cl− current analysis of CFTR Cl− channel activity in Calu-3 cells; assay type: cell-based; conditions: CPT-cAMP
[12] = system: forskolin-induced Cl− secretion in mouse intestinal sheets
[13] = system: cholera toxin (CT)-induced Cl− secretion in T84 cells; assay: cells; assay type: cell-based; conditions: Homo sapiens
[14] = system: inwardly rectifying Cl− channel (IRC); assay: Apical Cl− current analysis of forskolin-stimulated IRC in T84 cells
T84 cells = assay: MTT assay of T84 cell viability; conditions: 24-h exposure, 10 µM to 200 µM
[15] = biological target: cAMP-activated basolateral K+ channels (KCNQ1/KCNE3) (Homo sapiens, UniProt P51787); conditions: T84 cells, 30 µM
cAMP-activated basolateral K+ channels (KCNQ1/KCNE3), sequence (Q9Y6H6 whole entry): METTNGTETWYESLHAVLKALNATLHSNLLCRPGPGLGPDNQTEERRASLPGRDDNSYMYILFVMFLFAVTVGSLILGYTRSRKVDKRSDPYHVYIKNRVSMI
cAMP-activated basolateral K+ channels (KCNQ1/KCNE3), sequence (P51787 whole entry): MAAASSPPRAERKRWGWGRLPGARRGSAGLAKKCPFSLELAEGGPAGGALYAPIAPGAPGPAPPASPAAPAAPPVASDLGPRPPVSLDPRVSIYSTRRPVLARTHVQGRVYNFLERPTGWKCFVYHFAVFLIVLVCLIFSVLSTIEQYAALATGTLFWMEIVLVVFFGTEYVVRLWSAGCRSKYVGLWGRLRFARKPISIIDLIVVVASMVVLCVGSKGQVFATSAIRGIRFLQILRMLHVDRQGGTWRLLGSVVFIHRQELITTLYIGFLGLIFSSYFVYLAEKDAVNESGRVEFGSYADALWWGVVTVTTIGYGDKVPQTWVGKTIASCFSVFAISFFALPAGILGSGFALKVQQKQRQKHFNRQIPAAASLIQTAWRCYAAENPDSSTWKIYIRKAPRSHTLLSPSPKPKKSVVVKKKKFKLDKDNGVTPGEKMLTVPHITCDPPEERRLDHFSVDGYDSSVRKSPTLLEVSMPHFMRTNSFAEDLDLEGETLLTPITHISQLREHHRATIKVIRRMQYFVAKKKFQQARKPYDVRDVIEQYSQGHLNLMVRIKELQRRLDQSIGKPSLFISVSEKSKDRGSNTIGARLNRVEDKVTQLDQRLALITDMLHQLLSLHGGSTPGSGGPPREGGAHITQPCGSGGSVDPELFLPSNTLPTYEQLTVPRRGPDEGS

T1 sequence (P13569 whole entry): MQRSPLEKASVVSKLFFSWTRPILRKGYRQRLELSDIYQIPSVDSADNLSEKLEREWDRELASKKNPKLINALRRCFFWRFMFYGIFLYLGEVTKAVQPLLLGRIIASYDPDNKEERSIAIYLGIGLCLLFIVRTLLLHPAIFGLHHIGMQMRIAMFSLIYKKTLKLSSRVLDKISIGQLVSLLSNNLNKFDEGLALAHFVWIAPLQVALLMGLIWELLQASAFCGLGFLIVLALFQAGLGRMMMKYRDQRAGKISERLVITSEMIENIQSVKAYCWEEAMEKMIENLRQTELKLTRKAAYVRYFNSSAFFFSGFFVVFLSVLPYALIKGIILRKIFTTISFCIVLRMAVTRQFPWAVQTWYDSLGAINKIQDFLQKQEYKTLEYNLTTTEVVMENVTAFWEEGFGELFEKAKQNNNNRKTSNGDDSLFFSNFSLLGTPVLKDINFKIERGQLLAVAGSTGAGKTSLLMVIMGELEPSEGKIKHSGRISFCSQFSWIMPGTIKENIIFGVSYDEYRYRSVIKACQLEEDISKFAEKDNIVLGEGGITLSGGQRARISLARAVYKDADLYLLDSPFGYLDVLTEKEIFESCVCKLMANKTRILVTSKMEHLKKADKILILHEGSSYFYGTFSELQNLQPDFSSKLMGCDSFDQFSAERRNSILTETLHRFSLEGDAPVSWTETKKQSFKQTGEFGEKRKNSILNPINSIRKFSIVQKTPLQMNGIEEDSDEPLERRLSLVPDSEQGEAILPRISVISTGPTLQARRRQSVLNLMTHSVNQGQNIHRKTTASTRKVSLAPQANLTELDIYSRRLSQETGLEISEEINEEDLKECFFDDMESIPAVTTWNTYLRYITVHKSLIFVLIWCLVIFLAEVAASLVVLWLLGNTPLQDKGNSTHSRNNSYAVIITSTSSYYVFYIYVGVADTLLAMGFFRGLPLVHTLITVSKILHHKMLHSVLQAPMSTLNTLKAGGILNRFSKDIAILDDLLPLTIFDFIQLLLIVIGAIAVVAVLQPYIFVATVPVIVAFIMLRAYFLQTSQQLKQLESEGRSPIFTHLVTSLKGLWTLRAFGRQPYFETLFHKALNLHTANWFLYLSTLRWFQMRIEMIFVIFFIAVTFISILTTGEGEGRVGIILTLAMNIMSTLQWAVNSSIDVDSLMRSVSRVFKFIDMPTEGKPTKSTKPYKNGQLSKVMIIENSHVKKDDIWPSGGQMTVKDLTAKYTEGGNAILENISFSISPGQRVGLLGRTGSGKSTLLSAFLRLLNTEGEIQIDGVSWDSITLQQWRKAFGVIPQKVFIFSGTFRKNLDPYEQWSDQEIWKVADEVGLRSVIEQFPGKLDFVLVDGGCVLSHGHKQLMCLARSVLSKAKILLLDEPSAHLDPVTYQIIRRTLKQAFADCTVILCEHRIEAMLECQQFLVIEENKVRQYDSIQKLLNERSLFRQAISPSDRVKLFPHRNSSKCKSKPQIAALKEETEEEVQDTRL
Ca2+-activated basolateral K+ channels (KCa3.1), sequence (O15554 whole entry): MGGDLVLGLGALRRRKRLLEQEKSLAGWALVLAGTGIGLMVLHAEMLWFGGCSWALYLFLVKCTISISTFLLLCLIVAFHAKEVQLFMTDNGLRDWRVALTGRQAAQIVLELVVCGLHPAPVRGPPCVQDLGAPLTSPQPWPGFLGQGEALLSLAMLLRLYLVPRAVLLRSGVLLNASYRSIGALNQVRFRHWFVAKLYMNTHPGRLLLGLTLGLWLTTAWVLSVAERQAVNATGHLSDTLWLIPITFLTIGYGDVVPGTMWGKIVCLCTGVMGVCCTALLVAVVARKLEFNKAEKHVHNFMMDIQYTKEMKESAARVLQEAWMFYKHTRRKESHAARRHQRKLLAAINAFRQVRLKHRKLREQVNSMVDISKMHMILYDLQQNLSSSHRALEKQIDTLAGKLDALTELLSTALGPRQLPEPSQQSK

O=C(O)CN(CCOCCOCCN(CC(=O)O)CC(=O)O)CC(=O)O [EGTA]
effect on FITC-dextran flux, positive control (T84 cell monolayers): markedly increased

O=C(O)c1ccc(/C=C2\SC(=S)N(c3cccc(C(F)(F)F)c3)C2=O)cc1 [CFTRinh-172]
reduction of cholera toxin (CT)-induced intestinal fluid secretion [1]: > 90%
reduction of live V. cholerae-induced intestinal fluid secretion [2]: > 90%
effect on recovered apical Cl− current after washout (CFTR Cl− channel [3]; forskolin, CFTRinh-172 5 µM apical): inhibited

CCCCNc1cc(C(=O)O)cc(S(N)(=O)=O)c1Oc1ccccc1 [bumetanide]
effect on Tl+ influx (NKCC1 activity), positive control ([4]; 100 µM): completely prevented

O=C(O)Cc1ccccc1Nc1c(Cl)cccc1Cl [diclofenac]
effect on intracellular cAMP levels [5]: virtually no effect
effect on ATP-induced CaMKII phosphorylation [6]: unaffected
effect on ouabain-sensitive Isc (Na+-K+ ATPase activity) (Na+-K+ ATPase): no effect
inhibition of CaCC-mediated apical Cl− current at 20 µM ([7]; 20 µM): almost complete inhibition
IC50 ([7]; read-out: IC50, inhibition of CaCC-mediated apical Cl− current, CFTRinh-172 pretreatment, ATP 100 µM): ~1 µM
inhibition of V. cholerae-induced intestinal fluid secretion [8]: ~70%
inhibition of basolateral K+ current induced by ATP at 200 µM [9]: near complete inhibition
inhibition of CT-induced intestinal fluid secretion [10]: ~70%
inhibition of CFTR-mediated apical Cl− current at 100 µM (CFTR Cl− channel [11]): near complete inhibition
IC50 (CFTR Cl− channel [11]; 100 µM, read-out: IC50, inhibition of CFTR-mediated apical Cl− current induced by CPT-cAMP): ~10 µM
effect on forskolin-induced Cl− secretion in mouse intestinal sheets [12]: inhibited
effect on Tl+ influx (NKCC1 activity) ([4]; pretreatment 200 µM): no effect
IC50 ([13]; T84, read-out: IC50, inhibition of cholera toxin (CT)-induced Cl− secretion): ~10 µM
inhibition at 100 µM ([13]; T84, read-out: inhibition of CT-induced Cl− secretion at 100 µM): > 95%
inhibition of IRC-mediated apical Cl− current at 100 µM ([14]; 100 µM): near complete inhibition
IC50 ([14]; read-out: IC50, inhibition of IRC-mediated apical Cl− current, CFTRinh-172 pretreatment, forskolin 20 µM): ~5 µM
reversibility of inhibition of CFTR-mediated apical Cl− current (CFTR Cl− channel [3]; 20 µM, after removal from bathing solutions): reversible
IC50 (CFTR Cl− channel [3]; CPT-cAMP 100 µM, read-out: IC50, inhibition of apical Cl− current induced by CPT-cAMP): 8.5 µM
potency of inhibition of forskolin-induced Cl− current in the presence of IBMX (CFTR Cl− channel [3]; IBMX (PDE inhibitor) vs forskolin control): not different from that of control
potency of inhibition of apical Cl− current after pretreatment with MK571, compound C or Na2VO3 (CFTR Cl− channel [3]; MRP4, AMPK or protein phosphatase inhibitor): did not alter the potency
IC50 (CFTR Cl− channel [3]; apical Cl− current, regardless of the mechanisms of CFTR activation, read-out: IC50, inhibition of CFTR Cl− channel activity (summary)): ~10 µM and 8 to 10 µM
IC50 (CFTR Cl− channel [3]; forskolin 20 µM, read-out: IC50, inhibition of apical Cl− current induced by forskolin): 8 µM
inhibition of CFTR-mediated apical Cl− current at 100 µM (CFTR Cl− channel [3]; forskolin, CPT-cAMP or genistein, 100 µM): almost complete inhibition
IC50 (CFTR Cl− channel [3]; genistein 20 µM, read-out: IC50, inhibition of apical Cl− current induced by genistein): 10 µM
effect on T84 cell viability (MTT) (T84 cells): did not affect

Clc1ccccc1C(c1ccccc1)(c1ccccc1)n1ccnc1 [clotrimazole]
effect on CPT-cAMP-induced basolateral K+ current [15]: markedly inhibited
